Data on four compounds can be found in ChEMBL document CHEMBL3804816 (Medchemcomm, 2016).

Structures are written as SMILES. The source made the active and inactive calls. The calls are words filed in the database; no cut-off is given here.

Common to all, as to type: cell-based
The test system of assay [1] is IMR-32. In words: Agonist activity at GABA type-A receptor in human IMR32 cells at 1 mM after 2 hrs by Epic DMR assay.
In assay [2] the test system is IMR-32. In words: Agonist activity at GABA type-A receptor in human IMR32 cells at 100 uM after 2 hrs by Epic DMR assay.
A short description of assay [3]: Antagonist activity against GABA type-A receptor in human IMR32 cells assessed as GABA-induced response preincubated for 10 mins followed by GABA addition measured at 140 mins by Epic DMR assay.
Assay [4] is described as follows: Agonist activity at GABA type-A receptor in human IMR32 cells after 2 hrs by Epic DMR assay. The note with it: IMR-32, 2 h.

Take `Oc1noc2c1CCNC2`: the outcome in the assay on IMR-32 [1] was Active.

`NCC(CC(=O)O)c1ccc(Cl)cc1` (racemic): the result in the assay on IMR-32 [2] was inactive.

With `COc1ccc(-c2ccc(=N)n(CCCC(=O)O)n2)cc1` [GABAZINE], the IC50 is 7.38 µM in assay [3] (IMR-32, read-out: IC50) and 4.57 µM in assay [3] (IMR-32, read-out: pIC50 (converted)).

Regarding `NCc1cc(O)no1` [MUSCIMOL], in the assay on IMR-32 [1], the result was Active. The EC50 was 2.04 µM in assay [4] (read-out: EC50) and 1.7 µM in assay [4] (read-out: pEC50 (converted)).
